Results on 49 molecules are retold here after US8809341B2, “2,4-pyrimidinediamine compounds and uses as anti-proliferative agents” (Rigel Pharmaceuticals, Inc., priority 2003, dated 2014).

Like-named read-outs stand apart in the source and are kept apart here.

Holding throughout (format): cell-based
For one experiment, the system named is PC3. Briefly: in vitro antiproliferation assay, PC3 (prostate). Here is the method:
(§1) The IC50 values of various compounds against a various different tumor cell lines were determined using standard in vitro antiproliferation assays. The tumor cell lines tested were as follows: A549 (lung); H1299 (lung), ACHN (kidney/p53 wt), CAKI (renal cell carcinoma), NCI-H460 (lung); HCT116 (colon/p53w0; HELA (cervix/p53 wt), HUH7 (liver/p53 wt), HUVEC (primary endothelial), LNCAP (prostate), HT-29 (colon); MCF-7 (breast); MCF-7 (breast/ER positive), MDA MB435S (breast); MDA MB231 (breast/ER negative), DU145 (prostate); BxPC-3 (pancreatic); SKOV-3 (ovarian); HepG2 (hepatic), NDHF primary normal human dermal fibroblast), SKMEL28 (breast/p53mut), SKMEL5 (breast/p53 wt), U20S (bone) and PC3 (prostate). […] A blank indicates the specified compound was not tested against the specified cell line.
(§2) Many of the compounds were tested against other cell lines. Their activity is reported in TABLE 15, below, where +”, “−”, “−/+” or “+/−” values are as described for TABLES 1-14. Where the cell line includes a value in a parenthetical, the value indicates the seeding density at which the assay was performed

In another experiment the test system is A549 cells. Briefly: in vitro antiproliferation assay, A549 (lung). In a few lines: (§3)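 Standard in vitro antiproliferation assays on tumour cell lines, including A549 and H1299 (both lung); IC50 values determined.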
The subject of another experiment is HCT116. Briefly: in vitro antiproliferation assay, HCT116 (colon). The protocol:
as §1, §2

The test system of another experiment is H1299 cells. The experiment can be described thus: in vitro antiproliferation assay, H1299 (lung). The gist of the method:
as §3

Where [1] appears, read: A549 (lung) cells, in vitro antiproliferation.
Where [2] appears, read: Table 7, in vitro antiproliferation, A549 (lung) cells.
Where [3] appears, read: A549 (lung) cells, antiproliferation.
The mark [4] stands for this setting: in vitro antiproliferation, A549 (lung) cells, Table 4, compounds with no designated stereochemistry tested as racemate.
[5] abbreviates: HCT116 (colon), read-out: HCT116.
Where [6] appears, read: IC50 class against H1299 (lung) tumor cells.
[7] abbreviates: IC50 class against A549 (lung) tumor cells.
Setting [8] is: Table 5, in vitro antiproliferation, A549 (lung) cells.
Setting [9] is: Table 5, in vitro antiproliferation, H1299 (lung) cells.

For `CNC(=O)COc1cccc(Nc2ncc(F)c(Nc3cc(OC)cc(OC)c3)n2)c1` [compound 767], the IC50 in the experiment with PC3 and with A549 cells (setting [1]) was > 20 µM each time.

Turning to `CNC(=O)COc1cccc(Nc2ncc(F)c(Nc3ccc(C(C)(C)C)cc3)n2)c1` [compound 748], the IC50 in the experiment on PC3 and in the experiment on A549 cells (setting [1]) was > 20 µM throughout.

`COC(=O)c1cc2cc(Nc3ncc(F)c(Nc4ccc5c(c4)NC(=O)C(F)(F)O5)n3)ccc2o1` [compound 676]: the IC50 in the experiment with PC3 and in the experiment with A549 cells (setting [2]) was ≤ 20 µM throughout.

`CC(C)(C)c1ccc(Nc2nc(Nc3cccc(OCCO)c3)ncc2F)cc1` [compound 750]: the IC50 is ≤ 20 µM in the experiment with PC3 and > 20 µM with A549 cells (setting [1]).

`CC(C)(C)c1cccc(Nc2nc(Nc3cccc(OCC(=O)NCC(O)CO)c3)ncc2F)c1` (stereo not drawn) [compound 961]: the results for the IC50 with PC3 and in the experiment with A549 cells (setting [3]) were > 20 µM and < 20 µM, respectively.

Regarding `CNC(=O)COc1cccc(Nc2ncc(F)c(Nc3ccc4c(c3)NC(=O)C(C)O4)n2)c1` (racemic) [compound 256], the IC50 in the experiment with PC3 and in the experiment with A549 cells (setting [4]) was ≤ 20 µM in each case.

Take `Cc1cc(Nc2ncc(F)c(Nc3cccc(C(C)(C)C)c3)n2)cc(Cl)c1O` [compound 959]: the IC50 in the experiment on PC3 and in the experiment on A549 cells (setting [3]) was > 20 µM each time.

Turning to `CN(C)C(=O)c1cc2cc(Nc3ncc(F)c(Nc4cccc(O)c4)n3)ccc2o1` [compound 643], the IC50 in the experiment on PC3 and in the experiment on A549 cells (setting [2]) was > 20 µM each time.

Regarding `Oc1ccc(Nc2ncc(F)c(Nc3ccc(O)c(F)c3)n2)cc1F` [compound 742], the IC50 in the experiment on PC3 is ≤ 20 µM.

In the case of `COc1c(C)cc(Nc2nc(Nc3cccc(OCC(=O)N4CCNCC4)c3)ncc2F)cc1C` [compound 986], the IC50 with PC3 and in the experiment on A549 cells (setting [3]) was > 20 µM in each case.

As for `Fc1ccc(Nc2ncc(F)c(Nc3ccc(F)c(Cl)c3)n2)cc1Cl` [compound 938], the IC50 in the experiment with PC3 and in the experiment with A549 cells (setting [3]) was > 20 µM throughout.

In the case of `COc1c(C)cc(Nc2nc(Nc3cccc(OCCN4CCNCC4)c3)ncc2F)cc1C` [compound 987], the figures for the IC50 in the experiment with PC3 and in the experiment with A549 cells (setting [3]) were ≤ 20 µM and > 20 µM, respectively.

As for `Cc1cc(Nc2nc(Nc3cccc(OCCN4CCOCC4)c3)ncc2F)cc(Cl)c1O` [compound 957], the IC50 with PC3 and in the experiment on A549 cells (setting [3]) was ≤ 20 µM each time.

Regarding `Cc1c(Cl)cc(Nc2ncc(F)c(Nc3ccc4c(c3)NC(=O)C(C)(C)O4)n2)cc1Cl` [compound 306], the IC50 with HCT116 (setting [5]) is > 20 µM; with H1299 cells (in vitro antiproliferation, H1299 (lung) cells, Table 4, compounds with no designated stereochemistry tested as racemate), ≤ 20 µM; in the experiment with A549 cells (setting [4]), ≤ 20 µM.

Take `O=C(COc1cccc(Nc2ncc(F)c(Nc3cccc(O)c3)n2)c1)N1CCOCC1` [compound 762]: the IC50 in the experiment with PC3 was ≤ 20 µM; in the experiment on A549 cells (setting [1]), > 20 µM.

`Cc1cc(Nc2nc(Nc3cccc(OCC(=O)N4CCNCC4)c3)ncc2F)cc(C)c1O` [compound 980]: the IC50 is > 20 µM with PC3 and ≤ 20 µM in the experiment on A549 cells (setting [3]).

`Cc1cc(Nc2nc(Nc3cccc(OCC(=O)N4CCNCC4)c3)ncc2F)cc(Cl)c1O` [compound 983]: the IC50 is > 20 µM in the experiment with PC3 and ≤ 20 µM with A549 cells (setting [3]).

`CC(C)(C)c1ccc(Nc2nc(Nc3cccc(OCC(=O)O)c3)ncc2F)cc1` [compound 749]: the IC50 in the experiment with PC3 and with A549 cells (setting [1]) was > 20 µM each time.

As for `CNC(=O)COc1cccc(Nc2ncc(F)c(Nc3ccc(C)c(OC)c3)n2)c1` [compound 790], the IC50 with PC3 and in the experiment with A549 cells (setting [1]) was ≤ 20 µM throughout.

As for `Fc1cnc(Nc2ccc(Cl)c(Cl)c2)nc1NC1CCC1` [compound 111], the IC50 in the experiment with HCT116 (setting [5]), with H1299 cells (setting [6]) and with A549 cells (setting [7]) was ≤ 20 µM throughout.

For the molecule `COc1cc(Nc2ncc(F)c(Nc3cccc(O)c3)n2)cc(OC)c1` [compound 765], the IC50 in the experiment with PC3 and in the experiment with A549 cells (setting [1]) was ≤ 20 µM throughout.

Consider `Cc1cc(Nc2nc(Nc3cccc(OCC(=O)N4CCOCC4)c3)ncc2F)cc(Cl)c1O` [compound 954], for which the IC50 with PC3 and in the experiment on A549 cells (setting [3]) was > 20 µM in each case.

For `COC(=O)COc1cccc(Nc2ncc(F)c(Nc3ccc4c(c3)OCCCO4)n2)c1` [compound 580], the IC50 in the experiment on PC3 and in the experiment with A549 cells (setting [8]) was > 20 µM each time.

On to `CCOC(=O)c1cc2cccc(Nc3ncc(F)c(NCCO)n3)c2[nH]1` [compound 667], for which the IC50 is > 20 µM with HCT116 (Table 7, in vitro antiproliferation, colon cells, read-out: HTC116); > 20 µM in the experiment on H1299 cells (Table 7, in vitro antiproliferation, H1299 (lung) cells); > 20 µM in the experiment with A549 cells (setting [2]).

Consider `CNC(=O)c1cc2cc(Nc3ncc(F)c(Nc4ccc(C(C)(C)C)cc4)n3)ccc2o1` [compound 642], for which the IC50 with PC3 is ≤ 20 µM.

`Fc1cnc(Nc2cccc(OCCN3CCOCC3)c2)nc1Nc1ccc2c(c1)OCCO2` [compound 500]: the IC50 with PC3 is > 20 µM.

On to `CC(C)Oc1ccc(Nc2nc(Nc3cccc(OCC(=O)O)c3)ncc2F)cc1` [compound 752], for which the IC50 with PC3 and in the experiment on A549 cells (setting [1]) was > 20 µM in each case.

With `COc1ccc(Nc2ncc(F)c(NC3CCC3)n2)cc1Cl` [compound 112], the IC50 with HCT116 (setting [5]), in the experiment on H1299 cells (setting [6]) and with A549 cells (setting [7]) was ≤ 20 µM in each case.

For the molecule `OCc1cc(CO)cc(Nc2ncc(F)c(Nc3ccc4c(c3)OCCO4)n2)c1` [compound 529], the IC50 in the experiment on HCT116 (setting [5]), in the experiment on H1299 cells (setting [9]) and in the experiment with A549 cells (setting [8]) was ≤ 20 µM in each case.

On to `CNC(=O)COc1ccc(Nc2ncc(F)c(Nc3ccc(C(C)(C)C)cc3)n2)cc1` [compound 747], for which the values for the IC50 in the experiment with PC3 and with A549 cells (setting [1]) were ≤ 20 µM and > 20 µM, respectively.

Regarding `CN(C)CCOc1cccc(Nc2ncc(F)c(Nc3ccc4c(c3)OCCO4)n2)c1` [compound 510], the IC50 in the experiment with PC3 and in the experiment on A549 cells (setting [8]) was > 20 µM throughout.

Regarding `Fc1cnc(Nc2ccc(OCCN3CCOCC3)cc2)nc1Nc1ccc2c(c1)OCCO2` [compound 502], the IC50 in the experiment on PC3 and in the experiment on A549 cells (setting [8]) was > 20 µM throughout.

In the case of `CNC(=O)COc1cccc(Nc2ncc(F)c(Nc3ccc(OC(F)(F)F)c(Cl)c3)n2)c1` [compound 699], the IC50 is > 20 µM in the experiment with PC3 and ≤ 20 µM with A549 cells (setting [1]).

As to `CNC(=O)COc1ccc(Nc2ncc(F)c(Nc3ccc4c(c3)OCCO4)n2)cc1` [compound 501], the IC50 in the experiment with PC3 and in the experiment on A549 cells (setting [8]) was > 20 µM each time.

As to `CNC(=O)COc1cccc(Nc2ncc(F)c(Nc3ccc(OC)c(OC)c3)n2)c1` [compound 753], the IC50 in the experiment on PC3 and with A549 cells (setting [1]) was > 20 µM each time.

As for `O=C(O)COc1cccc(Nc2ncc(F)c(Nc3cccc(O)c3)n2)c1` [compound 978], the IC50 in the experiment on PC3 and in the experiment with A549 cells (setting [3]) was > 20 µM in each case.

Regarding `CN(CCO)C(=O)COc1cccc(Nc2ncc(F)c(Nc3ccc4c(c3)OCCO4)n2)c1` [compound 509], the IC50 in the experiment with PC3 and in the experiment on A549 cells (setting [8]) was > 20 µM in each case.

Turning to `O=C1COc2ccc(Nc3nc(Nc4cccc(O)c4)ncc3F)cc2N1` [compound 254], the IC50 with PC3 and in the experiment on A549 cells (setting [4]) was ≤ 20 µM in each case.

Take `O=C(COc1cccc(Nc2ncc(F)c(NC3CCC3)n2)c1)NC1CC1` [compound 110]: the IC50 with HCT116 (setting [5]), in the experiment with H1299 cells (setting [6]) and in the experiment with A549 cells (setting [7]) was ≤ 20 µM in each case.

For `Fc1cnc(Nc2cccc(OCCN3CCOCC3)c2)nc1Nc1ccc2c(c1)OCCO2` [compound 494], the IC50 in the experiment on HCT116 (setting [5]), with H1299 cells (setting [9]) and in the experiment with A549 cells (setting [8]) was ≤ 20 µM throughout.

`CNC(=O)COc1cccc(Nc2ncc(F)c(Nc3ccc4c(c3)OCCO4)n2)c1` [compound 516]: in the experiment with PC3, the IC50 is ≤ 20 µM.

In the case of `O=C(COc1cccc(Nc2ncc(F)c(Nc3ccc4c(c3)OCCO4)n2)c1)N1CCOCC1` [compound 493], the IC50 is < 20 µM in the experiment on HCT116 (setting [5]), ≤ 20 µM with H1299 cells (setting [9]) and < 20 µM in the experiment on A549 cells (setting [8]).

In the case of `Cc1cc(Nc2nc(Nc3cccc(OCC(=O)N4CCOCC4)c3)ncc2F)cc(C)c1O` [compound 948], the IC50 was ≤ 20 µM in the experiment on PC3 and > 20 µM with A549 cells (setting [3]).

In the case of `COC(=O)COc1cccc(Nc2ncc(F)c(Nc3cc(C)c(O)c(C)c3)n2)c1` [compound 982], the IC50 with PC3 and in the experiment on A549 cells (setting [3]) was > 20 µM in each case.

On to `CNC(=O)COc1cccc(Nc2nc(Nc3cccc(C(C)(C)C)c3)ncc2F)c1` [compound 956], for which the IC50 in the experiment with PC3 and in the experiment with A549 cells (setting [3]) was > 20 µM each time.

Take `CNC(=O)COc1cccc(Nc2ncc(F)c(Nc3ccc4c(n3)NC(=O)CO4)n2)c1` [compound 418]: the IC50 with PC3 is ≤ 20 µM.

Regarding `COc1cc(Nc2nc(Nc3cc(C)c(C)c(C)c3)ncc2F)cc(OC)c1` [compound 845], the IC50 with HCT116 (setting [5]) is ≤ 20 µM; in the experiment with H1299 cells (H1299 (lung) cells, in vitro antiproliferation), ≤ 20 µM; with A549 cells (setting [1]) it was ≤ 20 µM.

For `O=C(COc1cccc(Nc2ncc(F)c(Nc3cccc(O)c3)n2)c1)N1CCNCC1` [compound 761], the IC50 with PC3 is > 20 µM.

Take `CNC(=O)COc1cccc(Nc2ncc(F)c(Nc3ccc4c(c3)OCCO4)n2)c1` [compound 495]: the IC50 in the experiment on HCT116 (setting [5]) was ≤ 20 µM; in the experiment with H1299 cells (setting [9]), ≤ 20 µM; with A549 cells (setting [8]) it was < 20 µM.
